The values that follow come from US10941152B2, “Pyrazole compounds as modulators of FSHR and uses thereof” (TOCOPHERX, INC., priority 2014, dated 2021).

In experiment [1] the target is T1, follicle-stimulating hormone (FSH) receptor (Rattus norvegicus, UniProt P20395).
T1 construct: endogenous in cells; host or cells: rat granulosa cells
T1 sequence (P20395 18-692): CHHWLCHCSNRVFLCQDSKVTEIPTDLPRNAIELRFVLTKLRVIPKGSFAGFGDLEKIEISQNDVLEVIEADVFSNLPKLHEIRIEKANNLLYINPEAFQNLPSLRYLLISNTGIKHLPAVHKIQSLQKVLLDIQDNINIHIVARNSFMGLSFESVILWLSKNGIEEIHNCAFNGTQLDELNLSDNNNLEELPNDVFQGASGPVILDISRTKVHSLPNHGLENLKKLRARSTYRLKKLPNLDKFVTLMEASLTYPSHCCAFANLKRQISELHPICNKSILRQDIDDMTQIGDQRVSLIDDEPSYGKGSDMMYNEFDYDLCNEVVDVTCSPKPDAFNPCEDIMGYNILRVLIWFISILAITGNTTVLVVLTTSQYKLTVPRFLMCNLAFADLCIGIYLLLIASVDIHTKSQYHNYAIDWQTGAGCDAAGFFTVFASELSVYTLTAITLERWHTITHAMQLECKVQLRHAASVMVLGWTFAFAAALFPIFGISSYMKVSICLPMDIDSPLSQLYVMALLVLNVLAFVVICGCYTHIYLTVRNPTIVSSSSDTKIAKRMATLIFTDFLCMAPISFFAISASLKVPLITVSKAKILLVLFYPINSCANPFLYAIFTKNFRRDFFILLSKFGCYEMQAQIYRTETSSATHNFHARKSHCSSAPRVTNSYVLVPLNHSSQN
Description: Rat granulosa EC50 FSH (Assay B). The class given is cell-based. The method, then:
Example 25. Rat granulosa EC50 FSH (Assay B)
The assay was performed pursuant to the teaching of Yanofsky et al. (2006) Allosteric activation of the follicle-stimulating hormone (FSH) receptor by selective, nonpeptide agonists (JBC 281(19): 13226-13233, which is incorporated by reference in the disclosure of the invention).

The target of a further experiment is T2, FSHR (Homo sapiens, UniProt P23945).
T2 construct: expressed in transfected cells; host or cells: CHO (Cho-FSHR-LUC-1-1-43)
T2 sequence (P23945 18-695): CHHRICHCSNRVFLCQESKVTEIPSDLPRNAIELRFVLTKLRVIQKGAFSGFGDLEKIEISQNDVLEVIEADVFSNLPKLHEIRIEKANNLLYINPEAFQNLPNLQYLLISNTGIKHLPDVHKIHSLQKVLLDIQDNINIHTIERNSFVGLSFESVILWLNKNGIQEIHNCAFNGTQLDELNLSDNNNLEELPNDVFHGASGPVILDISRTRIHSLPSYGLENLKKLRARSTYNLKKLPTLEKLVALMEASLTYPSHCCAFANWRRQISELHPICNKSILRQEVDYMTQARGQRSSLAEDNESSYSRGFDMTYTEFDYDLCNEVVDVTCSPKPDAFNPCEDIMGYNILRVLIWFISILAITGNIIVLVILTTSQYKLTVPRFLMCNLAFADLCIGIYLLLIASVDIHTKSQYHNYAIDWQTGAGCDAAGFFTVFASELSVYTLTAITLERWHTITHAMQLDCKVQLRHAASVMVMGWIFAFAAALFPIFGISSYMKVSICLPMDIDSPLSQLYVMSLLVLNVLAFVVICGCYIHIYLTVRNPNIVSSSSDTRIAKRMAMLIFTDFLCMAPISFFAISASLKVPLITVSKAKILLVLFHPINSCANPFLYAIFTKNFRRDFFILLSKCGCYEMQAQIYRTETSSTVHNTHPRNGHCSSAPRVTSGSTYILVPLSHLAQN
Description: EC50 of cyclic AMP production in CHO FSHR cells + EC20 FSH (Assay A). The class given is cell-based. As to conditions: cyclic AMP production in CHO FSHR cells + EC20 FSH (0.265 pM), HTRF. A digest of the protocol:
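cAMP was detected by HTRF as the 665/620 nm ratio. The CHO-FSHR cells had first been exposed for 1 h at 37° C to test compound together with 0.265 pM FSH (EC20) and 200 μM IBMX. Responses are given as percent of the FSH standard maximum.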
(Time-resolved FRET reads energy transfer from a long-lived donor to a nearby acceptor.)

Usually EC50 stands for the concentration needed to bring the measured effect to its halfway point. Consider `COc1cc2c(cc1-c1cc(C(N)=O)c[n+]([O-])c1)-c1c(c(C(=O)N3CCOCC3(C)C)nn1-c1cc(F)cc(F)c1)CO2` [Compound 176], for which the EC50 in experiment [1] is 10 to 100 nM; on FSHR it was less than 10 nM.
As to `COc1cc2c(cc1-c1cc(=O)[nH][nH]1)-c1c(c(C(=O)N(C)C(C)(C)C)nn1-c1ccsc1)CO2` [Compound 185, N-tert-butyl-7-methoxy-N-methyl-8-(5-oxo-2,5-dihydro-1H-pyrazol-3-yl)-1-(thiophen-3-yl)-1,4-dihydrochromeno[4,3-c]pyrazole-3-carboxamide], the EC50 in experiment [1] lay in the range of 101 to 500 nM; on FSHR, 10 to 100 nM.
With `COc1cc2c(cc1-c1cccnc1F)-c1c(c(C(=O)N(C)C(C)(C)C)nn1-c1cc(Cl)cc(Cl)c1)CO2` [Compound 3, N-tert-butyl-1-(3,5-dichlorophenyl)-8-(2-fluoropyridin-3-yl)-7-methoxy-N-methyl-1,4-dihydrochromeno[4,3-c]pyrazole-3-carboxamide], the EC50 is 10 to 100 nM in experiment [1] and less than 10 nM on FSHR.
Taken in the same sequence, the figures for `COc1cc2c(cc1-c1cncc(CO)c1)-c1c(c(C(=O)N(C)C(C)(C)C#N)nn1-c1cc(Cl)cc(Cl)c1)CO2` [Compound 108, N-(2-cyanopropan-2-yl)-1-(3,5-dichlorophenyl)-8-(5-(hydroxymethyl)pyridin-3-yl)-7-methoxy-N-methyl-1,4-dihydrochromeno[4,3-c]pyrazole-3-carboxamide] were 10 to 100 nM and less than 10 nM.
For `COc1cc2c(cc1-c1cncc(C(N)=O)c1)-c1c(c(C(=O)N3CCC(O)CC3(C)C)nn1-c1cc(F)cc(F)c1)CO2` (stereo not shown) [Compound 162], in that order: 101 to 500 nM and less than 10 nM.
For `COc1cc2c(cc1-c1ccccn1)-c1c(c(C(=O)N3CCC(O)CC3(C)C)nn1-c1cc(Cl)cc(Cl)c1)CO2` (stereo not shown) [Compound 10, (1-(3,5-dichlorophenyl)-7-methoxy-8-(pyridin-2-yl)-1,4-dihydrochromeno[4,3-c]pyrazol-3-yl)(4-hydroxy-2,2-dimethylpiperidin-1-yl)methanone], in that order: 10 to 100 nM and less than 10 nM.
Regarding `CONC(=O)c1cncc(-c2cc3c(cc2OC)OCc2c(C(=O)N4CCOCC4(C)C)nn(-c4cc(Cl)cc(Cl)c4)c2-3)c1` [Compound 96, 5-(1-(3,5-dichlorophenyl)-3-(3,3-dimethylmorpholine-4-carbonyl)-7-methoxy-1,4-dihydrochromeno[4,3-c]pyrazol-8-yl)-N-methoxynicotinamide], the EC50 (in experiment [1]; at FSHR) was less than 10 nM each time.
With `COc1cc(OC)cc(-n2nc(C(=O)N(C)C(C)(C)CCO)c3c2-c2cc(-c4cccnc4F)c(OC)cc2OC3)c1` [Compound 135, 1-(3,5-dimethoxyphenyl)-8-(2-fluoropyridin-3-yl)-N-(4-hydroxy-2-methylbutan-2-yl)-7-methoxy-N-methyl-1,4-dihydrochromeno[4,3-c]pyrazole-3-carboxamide], the EC50 in experiment [1] is 10 to 100 nM; on FSHR, less than 10 nM.
For `COc1cc2c(cc1-c1cnn(CC(=O)O)c1)-c1c(c(C(=O)N3CCOCC3(C)C)nn1-c1cc(F)cc(F)c1)CO2` [Compound 88, 2-(4-(1-(3,5-difluorophenyl)-3-(3,3-dimethylmorpholine-4-carbonyl)-7-methoxy-1,4-dihydrochromeno[4,3-c]pyrazol-8-yl)-1H-pyrazol-1-yl)acetic acid], in that order: 101 to 500 nM and 10 to 100 nM.
For `COC(=O)[C@H]1C[C@@H]1c1cc2c(cc1OC)OCc1c(C(=O)N(C)C(C)(C)C)nn(-c3cc(F)cc(F)c3)c1-2` (racemic) [Compound 206], in that order: 101 to 500 nM and less than 10 nM.
`CNC(=O)c1cc(-c2cc3c(cc2OC)OCc2c(C(=O)N(C)C(C)(C)C)nn(-c4cc(F)cc(F)c4)c2-3)cnc1N` [Compound 100, 8-(6-amino-5-(methylcarbamoyl)pyridin-3-yl)-N-tert-butyl-1-(3,5-difluorophenyl)-7-methoxy-N-methyl-1,4-dihydrochromeno[4,3-c]pyrazole-3-carboxamide]: the results for the EC50 (in experiment [1]; on FSHR) were 10 to 100 nM and less than 10 nM, respectively.
Taken in the same sequence, the figures for `COc1cc2c(cc1-c1cc(F)cc(C(=O)O)c1)-c1c(c(C(=O)N(C)C(C)(C)C)nn1-c1cc(Cl)cc(Cl)c1)CO2` [Compound 83, 3-(3-(tert-butyl(methyl)carbamoyl)-1-(3,5-dichlorophenyl)-7-methoxy-1,4-dihydrochromeno[4,3-c]pyrazol-8-yl)-5-fluorobenzoic acid] were 101 to 500 nM and less than 10 nM.
Taken in the same sequence, the figures for `COc1cc(OC)cc(-n2nc(C(=O)N3CCOCC3(C)C)c3c2-c2cc(-c4cncc(C(N)=O)c4)c(OC)cc2OC3)c1` [Compound 159] were 10 to 100 nM and less than 10 nM.
With `COc1cc2c(cc1-c1c(C)nn(CC(N)=O)c1C)-c1c(c(C(=O)N(C)C(C)(C)C)nn1-c1cc(Cl)cc(Cl)c1)CO2` [Compound 139, 8-(1-(2-amino-2-oxoethyl)-3,5-dimethyl-1H-pyrazol-4-yl)-N-tert-butyl-1-(3,5-dichlorophenyl)-7-methoxy-N-methyl-1,4-dihydrochromeno[4,3-c]pyrazole-3-carboxamide], the EC50 is 10 to 100 nM in experiment [1] and less than 10 nM on FSHR.
For `COc1cc2c(cc1-c1cc(C)cnc1F)-c1c(c(C(=O)N(C)C(C)(C)C)nn1-c1ccsc1)CO2` [Compound 62, N-tert-butyl-8-(2-fluoro-5-methylpyridin-3-yl)-7-methoxy-N-methyl-1-(thiophen-3-yl)-1,4-dihydrochromeno[4,3-c]pyrazole-3-carboxamide], in that order: 10 to 100 nM and less than 10 nM.
Taken in the same sequence, the figures for `COc1cc2c(cc1-c1cnn(CCO)c1)-c1c(c(C(=O)N(C)C(C)(C)C)nn1-c1ccsc1)CO2` [Compound 76, N-tert-butyl-8-(1-(2-hydroxyethyl)-1H-pyrazol-4-yl)-7-methoxy-N-methyl-1-(thiophen-3-yl)-1,4-dihydrochromeno[4,3-c]pyrazole-3-carboxamide] were more than 500 nM and 10 to 100 nM.
Taken in the same sequence, the figures for `COc1cc2c(cc1-c1ccn(C)n1)-c1c(c(C(=O)N3CCOCC3(C)C)nn1-c1cc(Cl)cc(Cl)c1)CO2` [Compound 9, (1-(3,5-dichlorophenyl)-7-methoxy-8-(1-methyl-1H-pyrazol-3-yl)-1,4-dihydrochromeno[4,3-c]pyrazol-3-yl)(3,3-dimethylmorpholino)methanone] were 101 to 500 nM and less than 10 nM.
For the compound `COc1cc2c(cc1-c1cncc(C(N)=O)c1)-c1c(c(C(=O)N3CCOCC3(C)C)nn1-c1cc(F)cc(F)c1)CO2` [Compound 164], the EC50 (in experiment [1]; at FSHR) was less than 10 nM throughout.
With `COc1cc2c(cc1-c1cc(=O)[nH]n1C)-c1c(c(C(=O)N(C)C(C)(C)C)nn1-c1ccsc1)CO2` [Compound 187], the EC50 is 101 to 500 nM in experiment [1] and less than 10 nM on FSHR.
For `COc1cc2c(cc1-c1ccn(C)n1)-c1c(c(C(=O)N(C)C(C)(C)C)nn1-c1cc(Cl)cc(C(F)(F)F)c1)CO2` [Compound 64, N-tert-butyl-1-(3-chloro-5-(trifluoromethyl)phenyl)-7-methoxy-N-methyl-8-(1-methyl-1H-pyrazol-3-yl)-1,4-dihydrochromeno[4,3-c]pyrazole-3-carboxamide], in that order: 101 to 500 nM and 10 to 100 nM.
